Data on 20 compounds can be found in US5773469A, “Diaryl antimicrobial agents” (Ortho Pharmaceutical Corporation, priority 1996, dated 1998).

Counter-ions that a name gives are not always drawn. Where only a bound is given, the exact number is not on record here.

For the first experiment, the system named is gram positive bacteria / Gram negative bacteria (Enterococcus faecalis, Staphylococcus aureus incl. methicillin resistant, Staphylococcus epidermidis …). As to the kind of experiment: MIC antimicrobial assay (NCCLS microdilution broth method). It counts as cell-based. The conditions noted are these: MIC value range over the selected gram positive and gram negative test organisms; 35° C., 16-20 hours. Here is the method:
2. MIC Antimicrobial Assay
The in vitro antimicrobial activity of the compounds was determined by the microdilution broth method following the test method from the National Committee for Laboratory Standards (NCCLS). This method is described in the NCCLS Document M7-A2, Vol.10, No. 8 "Methods for Dilution Antimicrobial Susceptibility Test for Bacteria that Grow Aerobically-Second Edition."
In this method two-fold serial dilutions of drug in cation supplemented Mueller-Hinton broth are added to wells in microdilution trays. The test organisms are prepared by adjusting the turbidity of actively growing broth cultures so that the final concentration of test organism after it is added to the wells is approximately 5×10^4 CFUs/well).
Following inoculation of the microdilution trays, the trays are incubated at 35° C. for 16-20 hours and then read. […] The amount of growth in the wells containing the test compound is compared with the amount of growth in the growth-control wells (no test compound) used in each tray. The following test organisms were utilized in the assay:
Enterococcus faecalis ATCC 29212
Enterococcus faecalis oc 3041
Enterococcus faecalis oc 2993
Methicillin resistant Staphylococcus aureus oc 2089
Methicillin resistant Staphylococcus aureus oc 667
Staphylococcus aureus ATCC 29213
Staphylococcus aureus ATCC 6538
Staphylococcus epidermidis oc 2603
Escherichia coli oc 2530 ss […]
Take `N=C(N)NCc1cccc(OCCC(c2ccccc2)c2ccccc2)c1` [Compound 7, [3-(3,3-DIPHENYLPROPOXY)PHENYL]METHYLGUANIDINE BICARBONATE 0.5 HYDRATE]: the “MIC(G+/G-)” value is 2-32.

In a further experiment the target is T1, Kinase A and SpoOF (Bacillus subtilis, UniProt P16497).
T1 sequence (P16497 1-606): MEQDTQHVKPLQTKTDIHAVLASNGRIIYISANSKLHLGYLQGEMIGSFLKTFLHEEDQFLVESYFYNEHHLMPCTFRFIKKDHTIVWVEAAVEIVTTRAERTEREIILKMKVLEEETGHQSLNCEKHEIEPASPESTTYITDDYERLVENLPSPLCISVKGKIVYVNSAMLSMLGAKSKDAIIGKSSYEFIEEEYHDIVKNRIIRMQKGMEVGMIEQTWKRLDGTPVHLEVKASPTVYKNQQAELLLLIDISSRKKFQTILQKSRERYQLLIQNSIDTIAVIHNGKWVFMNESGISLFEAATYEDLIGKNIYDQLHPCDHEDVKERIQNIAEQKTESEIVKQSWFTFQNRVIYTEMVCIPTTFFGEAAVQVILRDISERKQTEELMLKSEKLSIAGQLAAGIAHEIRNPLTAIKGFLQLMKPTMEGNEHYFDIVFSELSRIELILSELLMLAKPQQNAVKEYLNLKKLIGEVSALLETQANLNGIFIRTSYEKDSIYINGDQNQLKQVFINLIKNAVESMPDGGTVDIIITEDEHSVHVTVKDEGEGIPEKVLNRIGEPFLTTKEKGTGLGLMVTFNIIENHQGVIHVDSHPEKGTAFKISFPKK
As to the kind of experiment: Autophosphorylation of Kinase A and transphosphorylation of SpoOF assay (HPK in vitro assay). Type of experiment: biochemical. To be noted: inhibition of KinA autophosphorylation / SpoOF transphosphorylation, [32P]ATP, gel and phosphoimager. Here is the method: 1. Autophosphorylation of Kinase A and Transphosphorylation of SpoOF Assay
To study the effect of the compounds of the present invention on the signal transduction process in bacteria, the inhibiting effect of the compounds on the sporulation operon proteins Kinase A and SpoOF was examined. Specifically, the inhibition of autophosphorylation of Kinase A and the transphosphorylation of SpoOF was determined in the following assays. The SpoOF response regulator is the primary substrate for phosphorylation by the protein kinase, Kin A, involved in the sporulation process in bacteria. See D. Burbulys, K. A. Trach, J. A. Hoch, Cell, 64, 545-552 (1991).
The following stock reagents were either prepared and used promptly or stored at the indicated temperature:
8× Salts: 2M KCl (5 mL), 1M MgCl2 (800 mL), 1M CaCl2 (100 mL), 10 mg/mL phenylmethylsulfonyl fluoride (200 mL), 1M dithioreitol (50 mL), 0.25M Na2 EDTA (32 mL) and H2 O 3.82 mL (-20°C.)
5× Loading Dye: 0.5M TRIS-HCl-pH 6.8 (7.5 mL), 10% SDS (2 mL) 0.1% bromophenol blue (0.5 mL), 100% glycerol (3 mL) and 12.5M 2-mercaptoethanol (0.3 mL)
1-1.3 mg/mL KinA:15 mM TRIS-HCl, pH 8.0, 6 mM KCl; 4 mM 2-mercaptoethanol; 40% glycerol (-20 C.)
1 mg/mL Spo0F: 17.5 mM TRIS-HCl, pH 8.0; 0.7 mM KCl; 0.7 mM MgCl2; 0.7 mM CaCl2; 5 mM 2-mercaptoethanol; 30% Glycerol (-20°C.)
5% Stacking Gel: 40% 29:1 acrylamide:bis acrylamide (1.25 mL), 0.5M TRIS-HCl, pH 6.8 (2.5 mL), 10% SDS (0.1 mL), D-H2 O (6.15 mL) 10% ammonium persulfate (100 mL) and TEMED (25 mL)
SDS Running Buffer: TRIS-BASE (3.02 g), glycine (14.4 g) SDS (1 g), D-H2 O (to 1 L)
The reaction mixture was prepared from 8× Salts (87 μL), 1M TRIS, pH 8 (118 EL), 50% glycerol (63 μL), Spo0F (14.1 μL) and KinA (7.0 μL). Microcentrifuge tubes were charged with the reaction mixture (18.5 μL) and a 1.0 mM solution of the test compound in 5% DMSO (18.5 μL), and incubated for 15 min on ice. 100 mM ATP solution (3.0 μI, containing 625 μCi [^32 P]ATP) was added, and the mixture left for 10 minutes at room temperature. The reaction was quenched with 5× loading dye (10 μL per tube) and the samples were loaded on a prepared 5% Stacking Gel, or stored on dry ice until ready for use. The prepared wells were filled with SDS Running Buffer, samples were loaded into the wells, and 80 volts were applied to the gel until the dye front reached the bottom of the stacking gel. The voltage was then increased to 250 volts until electrophoresis was complete. Radioactive bands in the gel corresponding to phosphorylated KinA and SpoOF were imaged and quantitated with a phosphoimager.
If either enzyme was inhibited (as evidenced by the absence of labelled protein in the developed gel), an IC50 was calculated by running the assay with a range of inhibitor concentrations from 1 to 500 μM. After electrophoresis of the reaction mixtures, percent inhibition was determined by measuring the concentration of radioactive phosphorus with a phosphoimager and calculating the values using a software program (BioRad Molecular Analyst).
Turning to `O=CN1CCN(c2ccc(OCCC(c3ccccc3)c3ccccc3)cc2)CC1` [Compound 12, 1-FORMYL-4-[4-(3,3-DIPHENYLPROPOXY)PHENYL]PIPERAZINE·0.5 HYDRATE], the IC50 – broadly, the concentration that gives 50% inhibition – turned out to be 165 µM.
For the compound `NCCc1ccc(OCCC(c2ccccc2)c2ccccc2)cc1` [Compound 2, 2-[4-(3,3-DIPHENYLPROPOXY)PHENYL]ETHYLAMINE], the IC50 was determined as 31.25 µM. Compared with the last compound, the IC50 is about 5.3-fold lower.
Same read-out and setting: the value for `NCCc1ccc(OCC=C(c2ccccc2)c2ccccc2)cc1` [Compound 9, 2-[4-(3,3-DIPHENYL-2-PROPENOXY)PHENYL]ETHYLAMINE HYDROCHLORIDE·0.5HYDRATE] was 41 µM; that for `NCCc1ccc(NC/C=C(/c2ccccc2)c2cccnc2)cc1` [Compound 20, Z-2-[4-(3-PHENYL-3-(3-PYRIDYL)PROPENYLAMINO)PHENYL]-ETHYLAMINE·OXALATE·0.2DIETHYL ETHER·0.15 ETHYL ACETATE·0.5 HYDRATE] was over 500 µM.
On to `C1=C(c2ccc(OCCOC(c3ccccc3)c3ccccc3)cc2)CCNC1` [Compound 25, 4-{4-[2-(DIPHENYLMETHOXY) ETHOXY]PHENYL}-1, 2, 3, 6-TETRAHYDROPYRIDINE·MONOOXALATE 0.5 HYDRATE], for which the IC50 was found to be 313 µM.
`NCCCc1ccc(OCC=C(c2ccccc2)c2ccccc2)cc1` [Compound 11, 3-[4-(3,3-DIPHENYL-2-PROPENOXY)PHENYL]PROPYLAMINE·OXALATE] displayed a half-inhibitory concentration (IC50) of 19.5 µM.
For the compound `O=C(O)C(=O)O.c1ccc(C(CCOc2ccc(N3CCNCC3)cc2)c2ccccc2)cc1` [Compound 14, 4-[4-(3,3-DIPHENYLPROPOXY)PHENYL]PIPERAZINE OXALATE], the IC50 is 130.4 µM.
On the same count and under the same terms, to `c1ccc(C(OCCOc2ccc(N3CCNCC3)cc2)c2ccccc2)cc1` [Compound 24, 4-[4-{2-(DIPHENYLMETHOXY)ETHOXY}PHENYL]PIPERAZINE·CARBONATE 2.0 HYDRATE] belongs 769 µM; to `N=C(N)NCCc1ccc(OCCC2c3ccccc3-c3ccccc32)cc1` [Compound 4, {2-[4-[2-(9-FLUORENYL)ETHOXY]PHENYL]ETHYL}GUANIDINE], 19.8 µM.
Still for that read-out and setting: the value for `NCCc1ccc(NC/C=C(\c2ccccc2)c2cccnc2)cc1` [Compound 21, E-2-[4-(3-PHENYL-3-(3-PYRIDYL)-2-PROPENYLAMINO)PHENYL]-ETHYLAMINE·OXALATE·0.33 ETHYL ACETATE·0.5 HYDRATE] was over 500 µM.
On the same count and under the same terms, to `N=C(N)NCCc1ccc(OCCN(Cc2ccccc2)Cc2ccccc2)cc1` [Compound 23, 2-[4-(2-[N,N'-DIBENZYLAMINO]-ETHOXY)PHENYL]ETHYLGUANIDINE] belongs 60 µM; to `N=C(N)NCCc1ccc(OCCC(c2ccccc2)c2ccccc2)cc1` [Compound 3, 2-[4-(3,3-DIPHENYLPROPOXY)PHENYL]ETHYLGUANIDINE], 21.5 µM; to `C1=C(c2ccc(OCCC(c3ccccc3)c3ccccc3)cc2)CCNC1` [Compound 15, 4-[4-(3,3-DIPHENYLPROPYLOXY)PHENYL]-1,2,3,6-TETRAHYDROPYRIDINE·HYDROCHLORIDE 0.6 HYDRATE], 45.6 µM.
For `NCc1cccc(OCCC(c2ccccc2)c2ccccc2)c1` [Compound 8, [3-(3,3-DIPHENYLPROPOXY)PHENYL]METHYLAMINE·HYDROCHLORIDE·0.6 HYDRATE], the IC50 worked out at 42.9 µM.
As to `N=C(N)NCc1cccc(OCCC(c2ccccc2)c2ccccc2)c1` [Compound 7, [3-(3,3-DIPHENYLPROPOXY)PHENYL]METHYLGUANIDINE BICARBONATE 0.5 HYDRATE], the IC50 turned out to be 60 µM.
As to `NCCc1ccc(OC(c2ccccc2)c2ccccc2)cc1` [Compound 10, 2-{4-(2-DIPHENYL-2-METHOXY)PHENYL}ETHYLAMINE·HYDROCHLORIDE·HYDRATE], the IC50 was 68 µM. This IC50 and that of the compound before are within 1.5-fold of each other.
For the compound `NCCc1ccc(O[C@@H]2CC[C@H](c3ccccc3)c3ccccc32)cc1` (relative stereo) [Compound 6, 2-[4-(ClS-4-PHENYL-1,2,3,4-TETRAHYDRO-1-NAPHTHOXY)PHENYL]-ETHYLAMINE OXALATE], the IC50 stood at 68.9 µM.
Same read-out and setting: the value for `NCCc1ccc(OCCC(c2ccccc2)c2cccnc2)cc1` (stereo not drawn) [Compound 18, 2-[4-(3-PHENYL-3-(3-PYRIDYL)PROPOXY)PHENYL]ETHYLAMINE·OXALATE·0.1 HYDRATE] was over 100 µM; that for `O=C(CC(c1ccccc1)c1ccccc1)Nc1ccc(N2CCNCC2)cc1` [Compound 13, 4-[4-(3,3-DIPHENYLPROPANOYLAMINO) PHENYL]PIPERAZINE·0.5 HYDRATE] was 379.4 µM.
The same measure, in the same setting: to `Brc1ccc(OCCC(c2ccccc2)c2ccccc2)cc1` [Compound 17, 4-(3,3-DIPHENYLPROPOXY)BROMOBENZENE] belongs 643.5 µM.
